Measurements as given in PubChem BioAssay (NCI).
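Cells were grown in 96-well plates and exposed to each compound for 48 hours at five concentrations; endpoints were interpolated linearly between bracketing concentrations, or set to the highest concentration if not reached. Definition used: TGI = concentration required for complete inhibition of growth.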

Key:
Experiment in all cases: inhibition of tumour cell growth, NCI panel, 48 h
HCT-15 colon = test system: HCT-15 colon
SK-OV-3 ovarian = test system: SK-OV-3 ovarian
NCI/ADR-RES ovarian = test system: NCI/ADR-RES ovarian
RPMI-8226 leukemia = test system: RPMI-8226 leukemia
ACHN renal = test system: ACHN renal
NCI-H23 lung = test system: NCI-H23 lung
HCC-2998 colon = test system: HCC-2998 colon
IGROV1 ovarian = test system: IGROV1 ovarian
EKVX NSCLC = test system: EKVX NSCLC
HOP-92 NSCLC = test system: HOP-92 NSCLC
PC-3 prostate = test system: PC-3 prostate
LOX IMVI melanoma = test system: LOX IMVI melanoma
MALME-3M melanoma = test system: MALME-3M melanoma
SN12C renal = test system: SN12C renal
HOP-62 NSCLC = test system: HOP-62 NSCLC
K-562 leukemia = test system: K-562 leukemia
A549 NSCLC = test system: A549 NSCLC
SNB-75 CNS = test system: SNB-75 CNS
NCI-H226 lung = test system: NCI-H226 lung
SF-268 CNS = test system: SF-268 CNS
OVCAR-8 ovarian = test system: OVCAR-8 ovarian
SR leukemia = test system: SR leukemia
MOLT-4 leukemia = test system: MOLT-4 leukemia
SF-539 CNS = test system: SF-539 CNS
A498 renal = test system: A498 renal
MDA-MB-231 breast = test system: MDA-MB-231 breast
T-47D breast = test system: T-47D breast
SK-MEL-2 melanoma = test system: SK-MEL-2 melanoma
MCF7 breast = test system: MCF7 breast
HCT-116 colon = test system: HCT-116 colon
OVCAR-3 ovarian = test system: OVCAR-3 ovarian
KM12 colon = test system: KM12 colon
SK-MEL-28 melanoma = test system: SK-MEL-28 melanoma
RXF 393 renal = test system: RXF 393 renal
M14 melanoma = test system: M14 melanoma
SNB-19 CNS = test system: SNB-19 CNS
SW-620 colon = test system: SW-620 colon
CAKI-1 renal = test system: CAKI-1 renal
HL-60(TB) leukemia = test system: HL-60(TB) leukemia
SF-295 CNS = test system: SF-295 CNS
OVCAR-4 ovarian = test system: OVCAR-4 ovarian
U251 CNS = test system: U251 CNS
MDA-N = test system: MDA-N
786-0 renal = test system: 786-0 renal
MDA-MB-435 = test system: MDA-MB-435
UO-31 renal = test system: UO-31 renal
DU-145 prostate = test system: DU-145 prostate
HS 578T breast = test system: HS 578T breast
CCRF-CEM leukemia = test system: CCRF-CEM leukemia
UACC-257 melanoma = test system: UACC-257 melanoma
OVCAR-5 ovarian = test system: OVCAR-5 ovarian
NCI-H460 lung = test system: NCI-H460 lung
HT29 colon = test system: HT29 colon
SK-MEL-5 melanoma = test system: SK-MEL-5 melanoma
TK-10 renal = test system: TK-10 renal
BT-549 breast = test system: BT-549 breast
COLO 205 colon = test system: COLO 205 colon
NCI-H522 lung = test system: NCI-H522 lung
UACC-62 melanoma = test system: UACC-62 melanoma

Question: With `CC(=N\N)/C(C)=N/N=C(C)/C(C)=N/N=C(C)/C(C)=N/N` as the molecule, how does the TGI (HCT-15 colon) read?
Answer: > 100 µM

Question: And the TGI (SK-OV-3 ovarian)?
Answer: > 100 µM

Question: What about the TGI (NCI/ADR-RES ovarian) of the same molecule?
Answer: > 100 µM

Question: What about the TGI (RPMI-8226 leukemia) of the same molecule?
Answer: > 100 µM

Question: What about the TGI (ACHN renal) of the same molecule?
Answer: > 100 µM

Question: What about the TGI (NCI-H23 lung) of the same molecule?
Answer: > 100 µM

Question: What about the TGI (HCC-2998 colon) of the same molecule?
Answer: > 100 µM

Question: What about the TGI (IGROV1 ovarian) of the same molecule?
Answer: > 100 µM

Question: And the TGI (EKVX NSCLC)?
Answer: > 100 µM

Question: And the TGI (HOP-92 NSCLC)?
Answer: > 100 µM

Question: And the TGI (PC-3 prostate)?
Answer: > 100 µM

Question: And the TGI (LOX IMVI melanoma)?
Answer: > 100 µM

Question: What about the TGI (MALME-3M melanoma) of the same molecule?
Answer: > 100 µM

Question: And the TGI (SN12C renal)?
Answer: > 100 µM

Question: What about the TGI (HOP-62 NSCLC) of the same molecule?
Answer: > 100 µM

Question: What about the TGI (K-562 leukemia) of the same molecule?
Answer: > 100 µM

Question: What about the TGI (A549 NSCLC) of the same molecule?
Answer: > 100 µM

Question: What about the TGI (SNB-75 CNS) of the same molecule?
Answer: > 100 µM

Question: And the TGI (NCI-H226 lung)?
Answer: > 100 µM

Question: And the TGI (SF-268 CNS)?
Answer: > 100 µM

Question: What about the TGI (OVCAR-8 ovarian) of the same molecule?
Answer: > 100 µM

Question: And the TGI (SR leukemia)?
Answer: > 100 µM

Question: What about the TGI (MOLT-4 leukemia) of the same molecule?
Answer: > 100 µM

Question: What about the TGI (SF-539 CNS) of the same molecule?
Answer: > 100 µM

Question: And the TGI (A498 renal)?
Answer: > 100 µM

Question: What about the TGI (MDA-MB-231 breast) of the same molecule?
Answer: > 100 µM

Question: And the TGI (T-47D breast)?
Answer: > 100 µM

Question: And the TGI (SK-MEL-2 melanoma)?
Answer: > 100 µM

Question: And the TGI (MCF7 breast)?
Answer: > 100 µM

Question: And the TGI (HCT-116 colon)?
Answer: > 100 µM

Question: What about the TGI (OVCAR-3 ovarian) of the same molecule?
Answer: > 100 µM

Question: And the TGI (KM12 colon)?
Answer: > 100 µM

Question: What about the TGI (SK-MEL-28 melanoma) of the same molecule?
Answer: > 100 µM

Question: What about the TGI (RXF 393 renal) of the same molecule?
Answer: > 100 µM

Question: What about the TGI (M14 melanoma) of the same molecule?
Answer: > 100 µM

Question: What about the TGI (SNB-19 CNS) of the same molecule?
Answer: > 100 µM

Question: What about the TGI (SW-620 colon) of the same molecule?
Answer: > 100 µM

Question: What about the TGI (CAKI-1 renal) of the same molecule?
Answer: > 100 µM

Question: What about the TGI (HL-60(TB) leukemia) of the same molecule?
Answer: > 100 µM

Question: What about the TGI (SF-295 CNS) of the same molecule?
Answer: > 100 µM

Question: And the TGI (OVCAR-4 ovarian)?
Answer: > 100 µM

Question: What about the TGI (U251 CNS) of the same molecule?
Answer: > 100 µM

Question: And the TGI (MDA-N)?
Answer: > 100 µM

Question: And the TGI (786-0 renal)?
Answer: > 100 µM

Question: What about the TGI (MDA-MB-435) of the same molecule?
Answer: > 100 µM

Question: What about the TGI (UO-31 renal) of the same molecule?
Answer: > 100 µM

Question: What about the TGI (DU-145 prostate) of the same molecule?
Answer: > 100 µM

Question: And the TGI (HS 578T breast)?
Answer: > 100 µM

Question: And the TGI (CCRF-CEM leukemia)?
Answer: > 100 µM

Question: What about the TGI (UACC-257 melanoma) of the same molecule?
Answer: > 100 µM

Question: What about the TGI (OVCAR-5 ovarian) of the same molecule?
Answer: > 100 µM

Question: And the TGI (NCI-H460 lung)?
Answer: > 100 µM

Question: What about the TGI (HT29 colon) of the same molecule?
Answer: > 100 µM

Question: What about the TGI (SK-MEL-5 melanoma) of the same molecule?
Answer: > 100 µM

Question: What about the TGI (TK-10 renal) of the same molecule?
Answer: > 100 µM

Question: What about the TGI (BT-549 breast) of the same molecule?
Answer: > 100 µM

Question: What about the TGI (COLO 205 colon) of the same molecule?
Answer: > 100 µM

Question: What about the TGI (NCI-H522 lung) of the same molecule?
Answer: > 100 µM

Question: Which TGI (HCT-15 colon) does the source give for `C/C1=C\C=C(\C(C)C)CC/C(C(=O)O)=C\CC/C(C)=C/CC1` here?
Answer: 51.1 µM

Question: And the TGI (SK-OV-3 ovarian)?
Answer: 64 µM

Question: And the TGI (NCI/ADR-RES ovarian)?
Answer: 76.2 µM

Question: What about the TGI (RPMI-8226 leukemia) of the same molecule?
Answer: 42.2 µM

Question: What about the TGI (ACHN renal) of the same molecule?
Answer: > 100 µM

Question: What about the TGI (NCI-H23 lung) of the same molecule?
Answer: 42.7 µM

Question: What about the TGI (HCC-2998 colon) of the same molecule?
Answer: 33.8 µM

Question: What about the TGI (IGROV1 ovarian) of the same molecule?
Answer: > 100 µM

Question: And the TGI (EKVX NSCLC)?
Answer: 78.7 µM

Question: What about the TGI (HOP-92 NSCLC) of the same molecule?
Answer: 40.5 µM

Question: What about the TGI (PC-3 prostate) of the same molecule?
Answer: 35.2 µM

Question: What about the TGI (LOX IMVI melanoma) of the same molecule?
Answer: 49.5 µM

Question: What about the TGI (MALME-3M melanoma) of the same molecule?
Answer: 52.2 µM

Question: And the TGI (SN12C renal)?
Answer: 45.9 µM

Question: And the TGI (HOP-62 NSCLC)?
Answer: 48 µM

Question: And the TGI (K-562 leukemia)?
Answer: 74.8 µM

Question: What about the TGI (A549 NSCLC) of the same molecule?
Answer: > 100 µM

Question: What about the TGI (SNB-75 CNS) of the same molecule?
Answer: > 100 µM

Question: And the TGI (NCI-H226 lung)?
Answer: 43.3 µM

Question: What about the TGI (SF-268 CNS) of the same molecule?
Answer: > 100 µM

Question: What about the TGI (OVCAR-8 ovarian) of the same molecule?
Answer: > 100 µM

Question: What about the TGI (SR leukemia) of the same molecule?
Answer: 38.6 µM

Question: What about the TGI (MOLT-4 leukemia) of the same molecule?
Answer: 43.2 µM

Question: And the TGI (SF-539 CNS)?
Answer: 34.8 µM

Question: What about the TGI (A498 renal) of the same molecule?
Answer: 34.1 µM

Question: And the TGI (MDA-MB-231 breast)?
Answer: 39.2 µM

Question: And the TGI (T-47D breast)?
Answer: > 100 µM

Question: And the TGI (SK-MEL-2 melanoma)?
Answer: 32.8 µM

Question: And the TGI (MCF7 breast)?
Answer: 34.8 µM

Question: What about the TGI (HCT-116 colon) of the same molecule?
Answer: 29.8 µM

Question: And the TGI (OVCAR-3 ovarian)?
Answer: 31.4 µM

Question: And the TGI (KM12 colon)?
Answer: 41.8 µM

Question: What about the TGI (SK-MEL-28 melanoma) of the same molecule?
Answer: 56.3 µM

Question: What about the TGI (RXF 393 renal) of the same molecule?
Answer: 41.4 µM

Question: What about the TGI (M14 melanoma) of the same molecule?
Answer: 63.6 µM

Question: What about the TGI (SNB-19 CNS) of the same molecule?
Answer: 51.2 µM

Question: What about the TGI (SW-620 colon) of the same molecule?
Answer: > 100 µM

Question: And the TGI (CAKI-1 renal)?
Answer: 88.3 µM

Question: And the TGI (HL-60(TB) leukemia)?
Answer: 56.8 µM

Question: What about the TGI (SF-295 CNS) of the same molecule?
Answer: 47.9 µM

Question: What about the TGI (OVCAR-4 ovarian) of the same molecule?
Answer: > 100 µM

Question: And the TGI (U251 CNS)?
Answer: 30.5 µM

Question: What about the TGI (MDA-N) of the same molecule?
Answer: 82 µM

Question: And the TGI (786-0 renal)?
Answer: 65.9 µM

Question: And the TGI (MDA-MB-435)?
Answer: 56.4 µM

Question: And the TGI (UO-31 renal)?
Answer: 53.8 µM

Question: And the TGI (DU-145 prostate)?
Answer: > 100 µM

Question: And the TGI (HS 578T breast)?
Answer: > 100 µM

Question: What about the TGI (CCRF-CEM leukemia) of the same molecule?
Answer: 41.8 µM

Question: What about the TGI (UACC-257 melanoma) of the same molecule?
Answer: 56.1 µM

Question: And the TGI (OVCAR-5 ovarian)?
Answer: 78 µM

Question: And the TGI (NCI-H460 lung)?
Answer: 34.5 µM

Question: What about the TGI (UACC-62 melanoma) of the same molecule?
Answer: 25.8 µM

Question: What about the TGI (HT29 colon) of the same molecule?
Answer: 99 µM

Question: What about the TGI (SK-MEL-5 melanoma) of the same molecule?
Answer: 34.7 µM

Question: And the TGI (TK-10 renal)?
Answer: > 100 µM

Question: What about the TGI (BT-549 breast) of the same molecule?
Answer: 79.9 µM

Question: What about the TGI (COLO 205 colon) of the same molecule?
Answer: 50.6 µM

Question: What about the TGI (NCI-H522 lung) of the same molecule?
Answer: 39.5 µM
